# Source: publication PMC12498426, “Conformational Plasticity of LptC Regulates Lipopolysaccharide Transport by the LptB2FGC Complex” (Journal of the American Chemical Society, 2025)
# T1: LptB2FG (Escherichia coli, UniProt P0A9V1+P0ADC6+P0AF98)
# T1 sequence (P0AF98 1-366): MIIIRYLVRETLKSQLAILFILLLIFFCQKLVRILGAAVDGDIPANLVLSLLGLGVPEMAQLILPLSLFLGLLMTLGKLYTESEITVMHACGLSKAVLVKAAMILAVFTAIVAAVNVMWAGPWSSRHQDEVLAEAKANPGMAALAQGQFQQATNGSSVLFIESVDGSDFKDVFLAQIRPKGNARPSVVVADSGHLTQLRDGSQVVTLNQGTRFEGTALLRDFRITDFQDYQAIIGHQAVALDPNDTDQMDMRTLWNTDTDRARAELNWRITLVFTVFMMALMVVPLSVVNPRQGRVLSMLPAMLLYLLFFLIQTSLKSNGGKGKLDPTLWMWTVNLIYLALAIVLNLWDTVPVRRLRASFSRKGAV
# T1 sequence (P0ADC6 1-360): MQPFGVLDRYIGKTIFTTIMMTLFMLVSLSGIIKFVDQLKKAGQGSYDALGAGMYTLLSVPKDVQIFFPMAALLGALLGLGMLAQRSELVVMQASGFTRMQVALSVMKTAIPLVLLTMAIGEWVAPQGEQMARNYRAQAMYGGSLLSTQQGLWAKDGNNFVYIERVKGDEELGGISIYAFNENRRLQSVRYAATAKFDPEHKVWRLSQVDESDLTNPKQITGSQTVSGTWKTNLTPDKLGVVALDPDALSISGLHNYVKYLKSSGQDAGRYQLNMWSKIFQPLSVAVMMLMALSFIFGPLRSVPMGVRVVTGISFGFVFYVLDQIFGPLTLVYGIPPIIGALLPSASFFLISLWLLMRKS
# T1 sequence (P0A9V1 2-241): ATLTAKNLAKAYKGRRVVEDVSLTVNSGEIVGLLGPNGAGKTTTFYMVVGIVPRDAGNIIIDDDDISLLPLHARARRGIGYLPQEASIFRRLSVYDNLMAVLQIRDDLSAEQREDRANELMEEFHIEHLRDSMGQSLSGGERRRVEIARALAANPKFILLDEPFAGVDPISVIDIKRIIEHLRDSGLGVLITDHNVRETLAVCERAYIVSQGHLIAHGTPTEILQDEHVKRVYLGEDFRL
# T2: LptB2FG complex (E. coli, UniProt P0A9V1 1-241; P0AF98 1-366; P0ADC6 1-360)
# T2 construct: LptF, transmembrane domain subunit of the lipopolysaccharide transporter, E. coli; LptG, transmembrane domain subunit of the lipopolysaccharide transporter, E. coli; Uniformly 13C-labelled for the TEDOR experiments; also called 13C-LptB2FG; ABC transporter LptB2FG; source: E. coli, co-expressed from pETDuet-1, membranes solubilised in DDM, purified (Ni-NTA); expression as previously described; …
# T2 sequence (looked up) 1: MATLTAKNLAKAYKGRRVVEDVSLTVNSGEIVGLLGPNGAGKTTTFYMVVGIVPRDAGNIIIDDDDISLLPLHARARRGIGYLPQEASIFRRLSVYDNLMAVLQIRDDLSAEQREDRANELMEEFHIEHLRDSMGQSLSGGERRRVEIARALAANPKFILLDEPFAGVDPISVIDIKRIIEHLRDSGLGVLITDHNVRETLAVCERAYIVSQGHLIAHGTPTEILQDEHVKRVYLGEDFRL
# T2 sequence (looked up) 2: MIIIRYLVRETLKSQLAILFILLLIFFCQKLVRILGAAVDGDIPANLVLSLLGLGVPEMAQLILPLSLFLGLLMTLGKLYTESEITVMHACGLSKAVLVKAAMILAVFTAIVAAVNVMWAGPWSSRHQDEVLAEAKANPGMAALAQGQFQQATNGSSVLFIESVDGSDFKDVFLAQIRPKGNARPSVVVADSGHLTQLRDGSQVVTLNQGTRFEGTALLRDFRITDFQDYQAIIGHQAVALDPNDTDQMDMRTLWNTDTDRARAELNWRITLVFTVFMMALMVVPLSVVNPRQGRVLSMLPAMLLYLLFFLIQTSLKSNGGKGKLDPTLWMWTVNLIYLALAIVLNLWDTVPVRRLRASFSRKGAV
# T2 sequence (looked up) 3: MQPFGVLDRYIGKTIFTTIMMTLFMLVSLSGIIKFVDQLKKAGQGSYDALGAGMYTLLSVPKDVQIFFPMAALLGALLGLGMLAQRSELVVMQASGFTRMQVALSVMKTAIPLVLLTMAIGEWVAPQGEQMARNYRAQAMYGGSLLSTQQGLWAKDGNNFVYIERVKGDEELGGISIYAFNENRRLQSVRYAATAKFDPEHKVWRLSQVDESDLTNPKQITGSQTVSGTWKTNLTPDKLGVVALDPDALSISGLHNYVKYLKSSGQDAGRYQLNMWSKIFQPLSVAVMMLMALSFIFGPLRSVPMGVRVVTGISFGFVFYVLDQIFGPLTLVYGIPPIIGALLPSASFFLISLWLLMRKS
# B1: LptC, full length with its transmembrane helix (natural protein, E. coli, UniProt P0ADV9 1-191, looked up)
# chain: MSKARRWVIIVLSLAVLVMIGINMAEKDDTAQVVVNNNDPTYKSEHTDTLVYNPEGALSYRLIAQHVEYYSDQAVSWFTQPVLTTFDKDKIPTWSVKADKAKLTNDRMLYLYGHVEVNALVPDSQLRRITTDNAQINLVTQDVTSEDLVTLYGTTFNSSGLKMRGNLRSKNAELIEKVRTSYEIQNKQTQP
# notes: LptC, E. coli, full length including the transmembrane helix; Isotope labelled for NMR (13C,15N-lysine or uniform 15N); also called 15N-LptC; 15N,13C-Lys-LptC; source: E. coli BL21(DE3), pBAD33.1, membranes solubilised in LS detergent, purified (Ni-NTA)
# Tests used:
# LptB2FG [1] = biological target: T1, LptB2FG; parameters: gene lptF; details: POPE/POPG liposomes; 20 mM MgCl2; pH 7.5; 37 °C; 0-5 mM ATP; no LPS
# LptB2FGC = biological target: T3, LptB2FGC (Escherichia coli, UniProt P0A9V1+P0ADC6+P0AF98); test: nanoDSF thermal shift; type: binding; details: 2-fold molar excess of Ra-LPS; DDM micelles; pH 7.5; 5 mM MgCl2
# T3 construct: gene lptF; in vitro assembled from LptB2FG (N-terminal His6 on LptB) and full-length LptC (C-terminal His6); liposomes or resolubilized in DDM; 2:1:1:1, 158 kDa; with Lipopolysaccharide export system protein LptC
# LptB2FG [2] = biological target: T1, LptB2FG; test: nanoDSF thermal shift; type: binding; parameters: gene lptF; full-length proteins, N-terminal His6-tag on LptB, pETDuet-1, expressed in E. coli, in DDM micelles or POPE/POPG liposomes; B2FG complex; details: 2-fold molar excess of Ra-LPS; DDM micelles; pH 7.5; 5 mM MgCl2
# LptB2FG complex [3] = biological target: T2, LptB2FG complex; test: native MS; LILBID-MS of LptB2FGC resolubilised in DDM micelles, apo state, 20 mM Tris-HCl pH 7.5, 0.05% DDM; details: both partners purified
# LptB2FG complex [4] = biological target: T2, LptB2FG complex; test: thermal shift assay (nanoDSF); LptB2FG and resolubilised LptB2FGC in 50 mM HEPES pH 7.5, 150 mM NaCl, 5 mM MgCl2, 5% glycerol, 0.05% DDM; 1 °C/min from 25 to 85 °C; first derivative of the 350 nm fluorescence; details: both partners purified
molecule,measurement,setting,value
Nc1ncnc2c1ncn2[C@@H]1O[C@H](COP(=O)(O)OP(=O)(O)OP(=O)(O)O)[C@@H](O)[C@H]1O [ATP],"malachite green ATPase assay, proteoliposomes",LptB2FG [1],activity of LptB2FG and LptB2FGC was determined by measuring the release of inorganic phosphate
Ra-LPS,increase in melting temperature,LptB2FGC,-271 °C
same,shift in melting temperature,LptB2FG [2],~ 9 K
B1,stoichiometry N,LptB2FG complex [3],1 LptC per LptB2FG
same,increase of melting temperature (nanoDSF),LptB2FG complex [4],11 K
